In patent publication US9258995B2, “Organ cold storage composition and methods of use” (BOARD OF TRUSTEES OF THE UNIVERSITY OF ARKANSAS, priority 2009, dated 2016):
Entries after “also recorded” stand apart in the source; their conditions may differ.

Experiments:
[1] = tested on: NRK cells; assay: MitoSOX Red mitochondrial superoxide generation, cold storage in vitro model; assay type: cell-based, rat; settings: 4 h CS at 4° C. in UW, 1 μM
Description: Normal rat kidney proximal tubular cells (NRK-52E; American Type Culture Collection, Manassas, Va.) were maintained in six-well 100 or 150-mm, or 150-mm plates in a humidified incubator gassed with 5% CO2 and 95% air at 37° C. in DMEM (Invitrogen, Carlsbad, Calif.) containing 5% fetal calf serum (FCS). Cells were grown to 60% confluence and divided into four treatment groups: 1) untreated (Untx), 2) CS, 3) CS+MitoQ, and 4) CS+DecylTPP. Untreated cells remained at 37° C. in DMEM containing 5% FCS (group 1). […]
MitoSOX Red (Invitrogen) was used to measure mitochondrial superoxide generation during CS. […] Fluorescence was visualized using an Eclipse E800 microscope (Nikon, Melville, N.Y.) with a rhodamine filter using a water immersion objective (60×). Fluorescent images of NRK cells were captured with equal exposure times and quantified by averaging the mean intensity fluorescence of five random cells in three different fields using Nikon N is Elements software. In separate experiments, cells were grown on coverslips, preloaded with MitoSOX Red before treatment (groups 1-4), and evaluated for mitochondrial superoxide generation using a Hitachi F-2500 spectrofluorometer (Hitachi, Tokyo, Japan) equipped with a coverslip holder using two different excitation wavelengths: 396 and 510 nm with the emission measured at 580 nm as previously described. […]

[2] = tested on: NRK cells; assay: Nitrotyrosine immunocytochemistry, CS plus rewarming; assay type: cell-based, rat; settings: 4-h CS plus overnight (18 h) RW, 1 μM added during CS
Description: Normal rat kidney proximal tubular cells (NRK-52E; American Type Culture Collection, Manassas, Va.) were maintained in six-well 100 or 150-mm, or 150-mm plates in a humidified incubator gassed with 5% CO2 and 95% air at 37° C. in DMEM (Invitrogen, Carlsbad, Calif.) containing 5% fetal calf serum (FCS). Cells were grown to 60% confluence and divided into four treatment groups: 1) untreated (Untx), 2) CS, 3) CS+MitoQ, and 4) CS+DecylTPP. Untreated cells remained at 37° C. in DMEM containing 5% FCS (group 1). CS was initiated by washing cells with cold PBS (Invitrogen) twice and storing them in UW/Viaspan solution alone (4 h at 4° C.) (group 2), CS+MitoQ (1 μM) (group 3), or CS+DecylTPP (1 μM) (group 4). In separate experiments, cells were exposed to CS plus RW by replacing UW solution alone or UW solution containing MitoQ or DecylTPP with DMEM containing 5% FCS overnight (18 h at 37° C.).
NRK cells (groups 1-4) were assessed for nitrotyrosine formation as previously described. […] Nitrotyrosine staining was evaluated and captured with equal exposure times using a Nikon Eclipse 800 microscope (40×oil). Images were quantified by averaging the mean intensity fluorescence of five random cells in three different fields using Nikon N is Elements software. Renal tissue sections were assessed for the presence of nitrotyrosine protein adducts by nitrotyrosine immunohistochemistry. […]

[3] = tested on: porcine kidneys; assay: Nitrotyrosine staining of porcine kidneys during cold preservation; parameters: dose or concentration left out as unconfirmed
Description: FIG. 14 depicts micrographs and plots showing increased nitrotyrosine protein expression detected during cold preservation. (A) Representative images showing MitoQ (100 mM) mediated reduction of nitrotyrosine staining. (B) Expression level of total (combined cortex and medulla) nitrotyrosine was evaluated and scored. (C) Expression level of cortical and medulla nitrotyrosine was evaluated and scored. Error bar indicates Mean SEM (n=4). *P<0.05 compared to untreated kidneys at 24 and 48 hr within the cortex.
Nitrotyrosine staining and nitrotyrosine expression levels were used to determine protective effect of MitoQ on porcine kidneys during SC.

[4] = tested on: mitochondrial respiratory complex; assay: Mitochondrial respiratory complex activity in kidneys following cold storage (Example 1); parameters: species or system rat; settings: following cold preservation (Example 1); MitoQ 100 μM
Description: FIG. 4 depicts a graph showing the effect of MitoQ treatment (100 μM) on mitochondrial respiratory complex activity in kidneys following cold storage *P<0.05 compared with control.
Rodent models of warm ischemia/reperfusion (I/R) (FIGS. 6-7) and cold renal preservation, as well as renal cell models of cold storage (FIG. 3-5) were used to evaluate the effectiveness of MitoQ in preventing renal damage during ischemia. […] In addition, Mito Q blunted mitochondrial superoxide production (Mitosox Red staining) and respiratory complex dysfunction following cold preservation (FIGS. 4-5).

[5] = patients with chronic hepatitis C virus infection, phase II clinical trials; cited from earlier work
[6] = porcine kidneys during cold preservation

## COC1=C(OC)C(=O)C(CCCCCCCCCC[P+](c2ccccc2)(c2ccccc2)c2ccccc2)=C(C)C1=O [MitoQ, mitoquinone]
[1]
  CS-induced mitochondrial superoxide generation (MitoSOX Red): significant protection
[2]
  nitrotyrosine staining during CS.RW: attenuated nitrotyrosine staining significantly
[3]; [6]
  nitrotyrosine expression levels, combined cortex and medulla: reduced
  nitrotyrosine staining: significantly decreased; also recorded: reduction
[3]; porcine kidneys, 24 and 48 hr
  nitrotyrosine expression levels in the cortex: significantly lower
[4]
  respiratory complex dysfunction: blunted
[5]
  liver damage: reduce liver damage
